These results are taken from US9089565B2, “Compositions and methods for causing neurite outgrowth” (MEDICAL RESEARCH COUNCIL, priority 2009, dated 2015).

The assay relates to RA-treated SH-SY5Y cells. The assay is described as follows: Neurite outgrowth of RA-treated SH-SY5Y cells. The format is cell-based, human. How it is done: FIG. 1. BDNF promotes neurite outgrowth of RA-treated SH-SY5Y, and induces phosphorylation of NgR1. (A) SH-SY5Y cells were incubated with indicated reagents. Cell images were taken with phase contrast microscopy. (B) Number of cells extending neurite-like structures of more than 40 μm and total cell number were counted from images taken in (A). More than 300 cells were examined in each sample. The proportion of cells extending neurite-like structures of more than 40 μm was indicated as a percentage of total cell number. An average of three experiments is shown. Error bars indicate S. E. between experiments. Data were analysed with student's t test. (C) Whole cell extracts were prepared from RA-treated SH-SY5Y cells after incubation with or without BDNF for 24 hours, and were analysed by SDS-PAGE. Immunoblotting was performed with the indicated antibodies. (D) Whole cell extract prepared from cells treated with both RA and BDNF was incubated with the indicated reagents for 1 hour at 37° C. Immunoblotting was performed with anti-NgR1 antibody. (E) RA-treated SH-SY5Y cells were incubated with BDNF in the presence or absence of one of the following: PKC inhibitor—500 nM Gö6983 or Gö6976; PKA inhibitor—2 μM KT5720 or a PKA inhibitor peptide 14-22; or either 500 nM or 1 μM of a casein kinase inhibitor, for 24 hours. Whole cell extracts prepared from these cells were analysed by SDS-PAGE. Immunoblotting was performed with anti-NgR1 antibody.
FIG. 2. CK2 promotes neurite outgrowth of RA-treated SH-SY5Y cells without BDNF. (A) RA-treated SH-SY5Y cells were incubated with the indicated reagents for 24 hours. Cell images were taken with phase contrast microscopy. (B) Number of cells extending neurite-like structures of more than 40 μm and total cell number were counted from images taken in (A). More than 300 cells were examined in each sample. Calculation was done as FIG. 1B. Result of student's t test between RA alone and RA+CK II+ATP was p=0.0014. (C) Myc-tagged wild type and mutant versions of NgR1 were over-expressed in SH-SY5Y cells. The cells were treated with RA, CK2 and ATP. Over-expressed NgR1-Myc was detected with anti-Myc antibody. (D) SH-SY5Y cells over-expressing 281S/A mutant NgR1-Myc were incubated with RA and NEP1-40. (E) SH-SY5Y cells over-expressing 281S/D mutant NgR1-Myc were treated as (C).
After fixation, beta-tubulin III was detected with anti-beta-tubulin III antibody. B, Wild type or 281S/A mutant NgR1-Myc was over-expressed in SH-SY5Y cells. After 5 days treatment with RA, these cells were incubated with 500 U/ml PKA and 500 nM (74 kBq/ml) ATP. Then, NgR1-Myc was immuno-precipitated and analysed with SDS-PAGE. […] NgR1-Myc was detected with anti-Myc antibody. […]

Where [1] appears, read: RA-treated SH-SY5Y, substance alone, 24 hours.

On to `Nc1ncnc2c1ncn2[C@@H]1O[C@H](COP(=O)(O)OP(=O)(O)OP(=O)(O)O)[C@@H](O)[C@H]1O` [ATP], for which the neurite outgrowth entry under setting [1] was “Neither addition of ATP alone nor CK2 alone to the culture medium induced neurite outgrowth”.

Regarding “NEP1-40: a competitive inhibitor of Nogo-66 binding to NgR1 (MEDLDQSPLVSSSDSPPRPQPAFKYQFVREPEDEEEEEEE; Nogo-66 residues 1-40; UniProt Q9NQC3 1-40, looked up, fragment) [reference compound]”, the neurite outgrowth result by setting is: under setting [1], “promoted neurite outgrowth”; (cells over-expressing 281S/A mutant NgR1, NEP1-40 for 24 hours) “showed neurite outgrowth”.

B1: BDNF: brain-derived neurotrophic factor, member of the neurotrophin nerve growth factor family, purchased from Merck (protein, UniProt P23560 19-247, looked up)
Neurotrophic factor BDNF …: APMKEANIRGQGGLAYPGVRTHGTLESVNGPKAGSRGLTSLADTFEHVIEELLDEDQKVRPNEENNKDADLYTSRVMLSSQVPLEPPLLFLLEEYKNYLDAANMSMRVRRHSDPARRGELSVCDSISEWVTAADKKTAVDMSGGTVTVLEKVPVSKGQLKQYFYETKCNPMGYTKEGCRGIDKRHWNSQCRTTQSYVRALTMDSKKRIGWRFIRIDTSCVCTLTIKRGR
B1: the neurite outgrowth result under setting [1] is “efficient neurite outgrowth”.
